Source: patent US11474106B2, “Methods for cytotoxic chemotherapy-based predictive assays” (ACCELERATED MEDICAL DIAGNOSTICS, INC., priority 2015, dated 2022)

Key:
[1] = tested on: cancer patients; assay: Patient toxicity related to the microdose; format: in vivo, human; conditions: IV microdose, 2.0×10^6 DPM/kg
Method: Radiolabeled carboplatin containing C^14 carbon atoms in the cyclobutane dicarboxylic acid group was formulated for human use as a sterile, pyrogen free solution at 5 mg/mL in water. […] Microdoses of the [^14C]Carboplatin were administered to human cancer patients as a diagnostic reagent, followed by full dose platinum-based chemotherapy and evaluation of response. Within four weeks of the [^14C]carboplatin microdose, these patients received standard of care chemotherapy for their disease, which included either carboplatin or cisplatin. […] Toxicity of the [^14C]carboplatin diagnostic reagent administered as a microdose was assessed using Common Terminology Criteria for Adverse Events (CTCAE).
The dose of carboplatin in the diagnostic microdose was chosen to be sub-toxic and non-therapeutic, to minimize patient chemical and radiation exposure, and to result in AMS measurable carboplatin-DNA monoadducts. Nineteen patients have been administered at least one microdose of [^14C]carboplatin via IV infusion as a diagnostic reagent. Patient toxicity related to the microdose was monitored from the time of IV microdose until the patients received their first chemotherapy.

[2] = tested on: five bladder cancer cell lines (5637, T24, TCCSUP, HT1197, and J82); assay: Oxaliplatin-DNA adducts by AMS in cell culture; format: cell-based
Method: (§1) The cell lines were purchased from the American Type Culture Collection (ATCC, Manassas, Va.) and cultured in the recommended media.
Cells were seeded in 60-mm dishes at a density of 1×10^6 cells/dish and allowed to attach overnight in a 37° C. humidified atmosphere containing 5% CO2. […] The cells were then washed twice with phosphate-buffered solution (PBS) and maintained thereafter with oxaliplatin-free culture media. DNA was harvested at hours 0, 2, 4, 8, 24 hours using the modified Wizard procedure described previously. Ten micrograms of DNA per sample was converted to graphite and measured by AMS for ^14C quantification. Triplicate sets of AMS experiments were performed and the data was plotted as time vs oxaliplatin-DNA adducts per 10^8 nt. […] Oxaliplatin-DNA monoadducts could be detected in all cell lines at all time points. […] Therefore, drug-DNA damage from microdoses of oxaliplatin are predictive of the extent of DNA modification caused by the therapeutic dose in cell culture.

[3] = tested on: 5637R; assay: Oxaliplatin-DNA adduct formation and repair by AMS; format: cell-based, human
Method: (§2) To characterize the oxaliplatin-DNA adduct frequency in these cell lines, cells from each cell line were seeded in 60-mm dishes at a density of 1×10^6 cells/dish and allowed to attach overnight in a 37° C. humidified atmosphere containing 5% CO2. […] The cells were then washed twice with phosphate-buffered solution (PBS) and maintained thereafter with oxaliplatin-free culture media. DNA was harvested at hours 0, 2, 4, 8, 24, 28 and 48 hours using a Promega Wizard DNA Purification Kit. Ten micrograms of DNA per sample was converted to graphite and measured by AMS for ^14C quantification. Triplicate sets of AMS experiments were performed and the data was plotted as time vs oxaliplatin-DNA adducts per 10^8 nt.
(§3) Statistics were calculated with n=3 for each cell line. ANOVA analysis of IC50 and AUC data were based on a one-sided t-test.

[4] = tested on: 5637; assay: Oxaliplatin-DNA adduct formation and repair by AMS; format: cell-based, human
Method: as §2, §3

[5] = Human plasma pharmacokinetics of oxaliplatin microdose; format: in vivo; conditions: metastatic breast cancer patient, IV microdose
Method: Single agent oxaliplatin chemotherapy is given by IV at a personalized dose of 130 mg/m^2 of body surface area using the Du Bois and Du Bois formula (Du Bois, D., and E. F. Du Bois. “A formula to estimate the approximate surface area if height and weight be known. 1916.” Nutrition (Burbank, Los Angeles County, Calif.) 5.5 (1989): 303).
Radiolabeled oxaliplatin containing C^14 carbon atoms in the cyclohexane ring was formulated for human use as a sterile, pyrogen free solution at 0.5 mg/mL in water. […] Unlabeled oxaliplatin and [^14C]oxaliplatin were mixed just before dosing to achieve the required microdose, and injected through the peripheral vein at one arm. Peripheral blood specimens were drawn into BD Vacutainer CPT' tubes with sodium heparin from the other arm at specific time points before and after the administration of the microdose. Plasma samples collected at −5 min, 5 min, 15 min, 30 min, 2 h, 4 h, 8 h, 24 h, and 48 h post microdose injection were analyzed by liquid scintillation counting (FIG. 17A).

[6] = tested on: PBMC; assay: Microdose-induced oxaliplatin-DNA adduct frequency by AMS; format: in vivo, human
Method: The plasma samples were additionally processed to isolate PBMC, and the DNA was extracted and analyzed using AMS to calculate the oxaliplatin-DNA adduct frequency (both monoadducts and diadducts combined) (FIG. 17B). […] These adduct levels then decrease substantially out to 48 hours post microdosing. […] Overall, the plasma PK and time course of oxaliplatin-DNA adduct formation and repair in PBMC allowed determination of the best time to dose patients prior to biopsy in order to maximize the oxaliplatin-DNA adduct formation, allow for repair in those patients with high repair capacity, minimize the risk of radioactive contamination of PBMC and tumor samples, and also minimize the risk of radioactive contamination of the operating room by blood-borne radiocarbon.
Plasma samples were collected, filtered, and counted by liquid scintillation counting to determine plasma oxaliplatin levels. […] The range of microdose-induced adduct levels (frequencies) for the three colorectal patients was 0.1-6 adducts per 10^8 nt.

[7] = format: physicochemical; conditions: 0.5 mg/mL in water
Method: Radiolabeled carboplatin containing C^14 carbon atoms in the cyclobutane dicarboxylic acid group was formulated for human use as a sterile, pyrogen free solution at 5 mg/mL in water.

[8] = Human plasma pharmacokinetics of carboplatin microdose, liquid scintillation counting; format: in vivo; conditions: four patients
Method: Although the pharmacokinetics of carboplatin are well known for therapeutic doses, it is not known if human pharmacokinetic parameters obtained using a microdose of carboplatin will track those obtained with therapeutic carboplatin dosing. […] This is a requirement for this diagnostic assay to be predictive of response to a therapeutic dose. The pharmacokinetics of microdose carboplatin were also measured in several different patients along with the kinetics of carboplatin-DNA monoadduct formation and repair in PBMC to establish that 24 hours post administration of a microdose of carboplatin is an appropriate time for sampling a patient for this predictive diagnostic assay.
Two of the bladder cancer patients received two doses of [^14C]carboplatin, including the initial diagnostic microdose and a second microdose at the time of full therapeutic dose. This allowed us to compare the pharmacokinetics of carboplatin in plasma after both microdosing and therapeutic dosing (FIG. 11A). […] Therefore, microdosing and therapeutic dosing yield similar carboplatin pharmacokinetics in human patients.
The pharmacokinetics of carboplatin administered as a microdose was assessed in four patients (two with bladder cancer and two with NSLC) for the purpose of comparing interpatient variability and establishing the optimum time point for tumor biopsy sample acquisition.

[9] = cited from earlier work
[10] = tested on: A549 tumor xenograph; assay: Tumor response to therapeutic carboplatin in xenograft; format: in vivo, nude mice; conditions: single IV 37.3 mg/kg, 14 days
Excerpt: (§4) Xenograft mouse tumors consisting of one carboplatin resistant and one sensitive tumor type were established for in vivo evaluation of carboplatin-DNA monoadduct formation and repair in tumor tissue and for in vivo evaluation of tumor response to therapeutic dosing with carboplatin. Tumor xenografts were established in 1-2 month old nude mice by injecting approximately one million cells into the left and right flanks, and allowed to develop tumors of less than 1 cm^3 over approximately 4 weeks prior to DNA adduct studies. Mice bearing resistant and sensitive tumors were exposed to either a microdose or therapeutic dose of carboplatin by tail vein injection. DNA isolated from tumor tissue was evaluated for carboplatin-DNA monoadduct frequency levels as a function of time. For tumor response, mice bearing resistant and sensitive tumors were therapeutically treated with a single IV injection of 37.3 mg/kg of carboplatin and then examined for tumor growth as assessed by measuring palpable tumors with a caliper and calculating tumor volume.
(§5) Mice xenografted with sensitive (H232A) and resistant (A549) lung cancer cell lines were infused with a therapeutic dose of carboplatin to assess tumor response. The tumors were measured daily over 14 days post infusion (FIG. 10C). Tumor size was normalized as the ratio of tumor diameter to the tumor diameter measured on day 0 (no change=1.0). […]

[11] = tested on: H23 2A tumor xenograph; assay: as above; format: in vivo, nude mice; conditions: H23 2A xenograph; single IV 37.3 mg/kg; 14 days
Excerpt: as §4, §5

[12] = tested on: 5637; assay: MTT assay (IC50); format: cell-based, human; conditions: Homo sapiens, 72 hours
Method: Thus, we measured the IC50 of the six NSCLC cell lines from Example 2 to both cisplatin and carboplatin to determine if the sensitivity of these six NSCLC cell lines to the two drugs are correlated.
as §1
(§6) Drug-DNA adduct formation and repair was measured by accelerator mass spectrometry.
(§7) These two cell lines were also cultured with a range of concentrations of cisplatin, carboplatin, gemcitabine, doxorubicin, methotrexate and vinblastine for 72 hours to determine IC50 for these other drugs (FIG. 16C). These drugs were chosen because of their frequent use in the treatment of bladder cancer.

[13] = tested on: 5637R; assay: MTT assay (IC50); format: cell-based; conditions: Homo sapiens, 72 hours
Method: as §6
To confirm that 5637 was the original ATCC cell line, and that 5637R originated from the parental 5637 cell line, both cultures were sent to the ATCC Cell Line Authentication Service for cell verification per the ATCC protocol. More specifically, fifteen short tandem repeat (STR) loci plus the gender determining locus, amelogenin, were amplified using the commercially available PowerPlex® 16HS Kit from Promega.
as §7

[14] = 24 hour culture without oxaliplatin
[15] = 5637 (parental, Example 11), MTT

N[C@@H]1CCCC[14C@H]1N.O=C([O-])C(=O)[O-].[Pt+2] [[^14C]oxaliplatin]
tolerability of the radiolabeled microdose [1]: well tolerated
DNA damage concentrations (total oxaliplatin-DNA adducts) ([2]; microdose, 0.1 μM oxaliplatin for 4 hours): 50-100 oxaliplatin-DNA adducts per 10^8 nt
DNA damage concentrations (total oxaliplatin-DNA adducts) ([2]; therapeutic dose, 10 μM oxaliplatin for 4 hours): 5,000-10,000 oxaliplatin-DNA adducts per 10^8 nt
oxaliplatin-DNA adducts at 24 hours ([3]; 10 μM for 24 hours): 259.2±37.3 adducts per 10^8 nucleotide
repair rate [3, 14]: 3.48±0.15 adducts per 10^8 nucleotide-hour
area under curve (AUC) of oxaliplatin-DNA adducts ([3]; 48 hour study time period): 9,426±2457 adducts per 10^8 nucleotide-hour
oxaliplatin-DNA adducts at 24 hours ([4]; 10 μM for 24 hours): 710.0±32.2 adducts per 10^8 nucleotide
repair rate [4, 14]: 1.34±0.30 adducts per 10^8 nucleotides-hour
area under curve (AUC) of oxaliplatin-DNA adducts ([4]; 48 hour study time period): 27,720±2,985 adducts per 10^8 nucleotide-hour
T1/2 (α), first (fast) phase [5]: 13.3 min
maximum oxaliplatin-DNA adducts in PBMC ([6]; metastatic breast cancer patient, microdose, first 4 hours): 8 adducts per 10^8 nt
range of microdose-induced adduct levels (frequencies) ([6]; three colorectal patients, PBMC): 0.1-6 adducts per 10^8 nt
stability to freeze/thaw [7]: stable to free/thaw with no observed precipitation
loss of radiopurity per year ([7]; storage at −20° C.): < 2%

N.N.O=C([O-])C1(C(=O)[O-])CCC1.[Pt+2] [carboplatin]
time to clearance from the blood [8]: ≤ 24 h
in vivo half-life in patients ([9]; in vivo): 78 to 360 min
tumor response (tumor growth) [10]: continued to grow
tumor response (tumor growth) [11]: did not display any growth

COc1cccc2c1C(=O)c1c(O)c3c(c(O)c1C2=O)C[C@@](O)(C(=O)CO)C[C@@H]3O[C@H]1C[C@H](N)[C@H](O)[C@H](C)O1 [doxorubicin]
IC50 [12, 15]: 290 nM
IC50 ([13]; MTT): 270 nM

Nc1ccn([C@@H]2O[C@H](CO)[C@@H](O)C2(F)F)c(=O)n1 [gemcitabine]
IC50 [12, 15]: 120 nM
IC50 ([13]; MTT): 1440 nM

CN(Cc1cnc2nc(N)nc(N)c2n1)c1ccc(C(=O)N[C@@H](CCC(=O)O)C(=O)O)cc1 [methotrexate]
IC50 [12, 15]: 2010 nM
IC50 ([13]; MTT): 1240 nM

O=C1[O][Pt]2([NH][C@@H]3CCCC[C@H]3[NH]2)[O]C1=O [oxaliplatin, reference compound]
Cmax ([9]; therapeutically treated patients, read-out: plasma Cmax): ~10 µM

CC[C@]1(O)C[C@@H]2CN(CCc3c([nH]c4ccccc34)[C@@](C(=O)OC)(c3cc4c(cc3OC)N(C)[C@H]3[C@@](O)(C(=O)OC)[C@H](OC(C)=O)[C@]5(CC)C=CCN6CC[C@]43[C@@H]65)C2)C1 [vinblastine]
IC50 [12]; 5637: 0.6 nM
IC50 [13]: 0.61 nM
